Measurements taken from patent publication US9580390B2, “Indazole compounds as kinase inhibitors and method of treating cancer with same” (University Health Network, priority 2011, dated 2017).
Read-outs that look alike come from different tables or passages of the source.

Tests used:
[1] = test system: colon cancer cells (HCT116); test: Cancer cell line growth inhibition (SRB assay); type: cell-based; settings: Homo sapiens, HCT-116, read-out: Cancer Cell Line GI50 Range HCT116
TICs (Colon 12) = test: Colon tumor-initiating cell growth inhibition (Alamar Blue); type: cell-based; settings: 216 h, 9 days, read-out: Tumor Initiating Cell GI50 Range Colon 12
[2] = test system: ovarian cancer cells (PA-1); test: Cancer cell line growth inhibition (SRB assay); type: cell-based; settings: read-out: Cancer Cell Line GI50 Range PA-1
TICs (Ovarian 2393A) = test: Ovarian tumor-initiating cell growth inhibition (Alamar Blue); type: cell-based; settings: 144 h, 6 days, read-out: Tumor Initiating Cell GI50 Range Ovarain 2393A
human PLK4 = target: T1, human PLK4 (Homo sapiens, UniProt O00444); test: PLK4 inhibition assay (indirect ELISA); type: biochemical; settings: 15 μM ATP
T1 construct: amino terminal GST fusion of residues 1-391 of human PLK4; made in house; host or cells: E. coli
T1 sequence (O00444 1-391): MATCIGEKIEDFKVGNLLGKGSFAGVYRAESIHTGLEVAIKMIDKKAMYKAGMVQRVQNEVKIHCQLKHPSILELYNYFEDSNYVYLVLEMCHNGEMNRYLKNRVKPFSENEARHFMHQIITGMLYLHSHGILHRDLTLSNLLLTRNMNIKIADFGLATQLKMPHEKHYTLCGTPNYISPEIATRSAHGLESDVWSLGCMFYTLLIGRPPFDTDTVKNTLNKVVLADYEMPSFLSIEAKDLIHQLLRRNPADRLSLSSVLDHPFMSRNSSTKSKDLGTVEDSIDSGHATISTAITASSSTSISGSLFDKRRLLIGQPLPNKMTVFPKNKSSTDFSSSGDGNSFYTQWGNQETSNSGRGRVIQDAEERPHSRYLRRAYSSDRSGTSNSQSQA
Procedure, shortened: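 Dephosphorylated GST-PLK4 (residues 1-391, E. coli; 4 nM) was preincubated 15 min with compound, then reacted 30 min with 15 μM ATP in HEPES pH 7.4, MgCl2, Brij 35 on MBP-coated plates. Phospho-MBP was detected by antibody/HRP ELISA at 450 nm; IC50 from 10-point titration by 4-parameter logistic fit, or single 10 μM % inhibition.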

Breast cancer cells = test: Cancer cell line growth inhibition (SRB assay); type: cell-based; settings: Homo sapiens; MDA-MB-468; read-out: Cancer Cell Line GI50 Range MDA-MB-468
human TTK = target: T2, human TTK (Homo sapiens, UniProt P33981); test: TTK inhibition assay (indirect ELISA); type: biochemical; settings: read-out: TTK IC50 Range
T2 construct: amino terminal GST fusion of full length human TTK; purchased Invitrogen
T2 sequence (P33981 1-857): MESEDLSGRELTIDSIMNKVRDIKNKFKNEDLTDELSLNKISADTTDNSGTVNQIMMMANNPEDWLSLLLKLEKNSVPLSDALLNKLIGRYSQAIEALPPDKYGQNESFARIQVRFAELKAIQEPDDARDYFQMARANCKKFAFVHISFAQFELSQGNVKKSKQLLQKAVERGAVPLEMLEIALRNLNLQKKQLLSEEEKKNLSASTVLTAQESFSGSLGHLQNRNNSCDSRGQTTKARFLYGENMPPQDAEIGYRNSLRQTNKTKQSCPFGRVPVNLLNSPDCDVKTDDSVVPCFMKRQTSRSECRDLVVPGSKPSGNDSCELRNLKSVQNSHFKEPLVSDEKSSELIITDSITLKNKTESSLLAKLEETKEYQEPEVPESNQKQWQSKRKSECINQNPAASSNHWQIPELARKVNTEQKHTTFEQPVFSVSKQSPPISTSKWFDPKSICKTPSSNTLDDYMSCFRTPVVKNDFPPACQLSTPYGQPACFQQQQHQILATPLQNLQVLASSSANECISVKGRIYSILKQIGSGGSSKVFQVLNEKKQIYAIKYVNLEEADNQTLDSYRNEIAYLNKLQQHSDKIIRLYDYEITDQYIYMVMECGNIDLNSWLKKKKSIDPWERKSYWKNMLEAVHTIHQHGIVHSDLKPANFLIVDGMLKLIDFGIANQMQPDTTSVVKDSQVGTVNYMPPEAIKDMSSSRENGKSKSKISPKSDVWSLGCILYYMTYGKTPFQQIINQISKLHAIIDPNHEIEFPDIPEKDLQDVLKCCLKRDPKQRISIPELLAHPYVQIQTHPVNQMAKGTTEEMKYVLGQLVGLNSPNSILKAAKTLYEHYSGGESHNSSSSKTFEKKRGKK

[3] = HCT116 colon cancer cells, SRB assay
[4] = PA-1 ovarian cancer cells, SRB assay

## O=CN1CCC(Oc2ccc(-c3n[nH]c4ccc(NC(=O)C(c5ccccn5)C5CCCC5)cc34)cc2)CC1 (stereo not drawn) [Example A176, 2-cyclopentyl-N-(3-(4-((1-formylpiperidin-4-yl)oxy)phenyl)-1H-indazol-5-yl)-2-(pyridin-2-yl)acetamide]
[1]; [3]
  GI50: 100 to 500 nM
TICs (Colon 12); colon TICs, Alamar Blue
  GI50: 100 to 500 nM
[2]; [4]
  GI50: 100 to 500 nM
TICs (Ovarian 2393A); ovarian TICs, Alamar Blue
  GI50: 100 to 500 nM
Human PLK4
  IC50: < 50 nM

## CCOC(C(=O)Nc1ccc2[nH]nc(-c3ccc(OC4CCN(C)CC4)cc3)c2c1)c1ccccc1 (stereo not drawn) [Example A181, 2-ethoxy-N-(3-(4-((1-methylpiperidin-4-yl)oxy)phenyl)-1H-indazol-5-yl)-2-phenylacetamide]
[1]; [3]
  GI50: 100 to 500 nM
TICs (Colon 12); colon TICs, Alamar Blue
  GI50: 100 to 500 nM
[2]; [4]
  GI50: 100 to 500 nM
TICs (Ovarian 2393A); ovarian TICs, Alamar Blue
  GI50: > 500 nM
Human PLK4
  IC50: < 50 nM

## O=C(Nc1ccc2[nH]nc(-c3ccc(OC4CCN(C5COC5)CC4)cc3)c2c1)C(c1ccsc1)N1CCCC1 (stereo not drawn) [Example A184, N-(3-(4-((1-(oxetan-3-yl)piperidin-4-yl)oxy)phenyl)-1H-indazol-5-yl)-2-(pyrrolidin-1-yl)-2-(thiophen-3-yl)acetamide]
[1]; [3]
  GI50: < 100 nM
TICs (Colon 12); colon TICs, Alamar Blue
  GI50: 100 to 500 nM
[2]; [4]
  GI50: < 100 nM
TICs (Ovarian 2393A); ovarian TICs, Alamar Blue
  GI50: < 100 nM
Human PLK4
  IC50: < 50 nM

## O=CN1CCC(Oc2ccc(-c3n[nH]c4ccc(C(=O)NC(c5ccsc5)C5CC5)cc34)cc2)CC1 (stereo not drawn) [Example A186, N-(cyclopropyl(thiophen-3-yl)methyl)-3-(4-((1-formylpiperidin-4-yl)oxy)phenyl)-1H-indazole-5-carboxamide]
[1]; [3]
  GI50: < 100 nM
TICs (Colon 12); colon TICs, Alamar Blue
  GI50: < 100 nM
[2]; [4]
  GI50: < 100 nM
TICs (Ovarian 2393A); ovarian TICs, Alamar Blue
  GI50: < 100 nM
Human PLK4
  IC50: < 50 nM

## CC(C)OC(C(=O)Nc1ccc2[nH]nc(-c3ccc(OC4CCN(C)CC4)cc3)c2c1)c1ccccc1 (stereo not drawn) [Example A187, 2-isopropoxy-N-(3-(4-((1-methylpiperidin-4-yl)oxy)phenyl)-1H-indazol-5-yl)-2-phenylacetamide]
[1]; [3]
  GI50: < 100 nM
TICs (Colon 12); colon TICs, Alamar Blue
  GI50: 100 to 500 nM
[2]; [4]
  GI50: < 100 nM
TICs (Ovarian 2393A); ovarian TICs, Alamar Blue
  GI50: > 500 nM
Human PLK4
  IC50: < 50 nM

## CN1CCC(Oc2ccc(-c3n[nH]c4ccc(C(=O)NC(c5ccccc5)C5CC5)cc34)cc2Cl)CC1 (stereo not drawn) [Example A188, 3-(3-chloro-4-((1-methylpiperidin-4-yl)oxy)phenyl)-N-(cyclopropyl(phenyl)methyl)-1H-indazole-5-carboxamide]
[1]; [3]
  GI50: 100 to 500 nM
TICs (Colon 12); colon TICs, Alamar Blue
  GI50: > 500 nM
[2]; [4]
  GI50: 100 to 500 nM
TICs (Ovarian 2393A); ovarian TICs, Alamar Blue
  GI50: > 500 nM
Human PLK4
  IC50: < 50 nM

## CC[C@H](NC(=O)c1ccc2[nH]nc(-c3ccc(OC4CCN(C5COC5)CC4)cc3)c2c1)c1ccccc1Cl [Example A193, (S)-N-(1-(2-chlorophenyl)propyl)-3-(4-((1-(oxetan-3-yl)piperidin-4-yl)oxy)phenyl)-1H-indazole-5-carboxamide]
[1]; [3]
  GI50: < 100 nM
TICs (Colon 12); colon TICs, Alamar Blue
  GI50: < 100 nM
[2]; [4]
  GI50: < 100 nM
TICs (Ovarian 2393A); ovarian TICs, Alamar Blue
  GI50: 100 to 500 nM
Human PLK4
  IC50: < 50 nM

## CN1CCC(Oc2ccc(-c3n[nH]c4ccc(C(=O)N[C@H](CCO)c5ccccc5)cc34)cc2Cl)CC1 [Example A202, (R)-3-(3-chloro-4-((1-methylpiperidin-4-yl)oxy)phenyl)-N-(3-hydroxy-1-phenylpropyl)-1H-indazole-5-carboxamide]
[1]; [3]
  GI50: < 100 nM
TICs (Colon 12); colon TICs, Alamar Blue
  GI50: 100 to 500 nM
[2]; [4]
  GI50: < 100 nM
TICs (Ovarian 2393A); ovarian TICs, Alamar Blue
  GI50: 100 to 500 nM
Human PLK4
  IC50: < 50 nM

## C[C@@H](O)CN1CCC(Oc2ccc(-c3n[nH]c4ccc(C(=O)N[C@@H](c5ccsc5)C5CCCC5)cc34)cc2)CC1 [Example A222, N-((R)-cyclopentyl(thiophen-3-yl)methyl)-3-(4-((1-((R)-2-hydroxypropyl)piperidin-4-yl)oxy)phenyl)-1H-indazole-5-carboxamide]
[1]
  GI50: < 100 nM
Breast cancer cells
  GI50: 100 to 500 nM
Human TTK
  IC50: < 100 nM
TICs (Colon 12); Colon 12 TICs
  GI50: < 100 nM
[2]; Homo sapiens, PA-1
  GI50: < 100 nM
TICs (Ovarian 2393A); Ovarian 2393A TICs
  GI50: 100 to 500 nM
Human PLK4
  IC50: < 50 nM

## CN1C2CCC1CC(Oc1ccc(-c3n[nH]c4ccc(C(=O)N[C@@H](c5ccccc5Cl)C5CC5)cc34)cc1)C2 (stereo partly drawn) [Example A234, N-((R)-(2-chlorophenyl)(cyclopropyl)methyl)-3-(4-(((1R,3R,5S)-8-methyl-8-azabicyclo[3.2.1]octan-3-yl)oxy)phenyl)-1H-indazole-5-carboxamide]
[1]
  GI50: < 100 nM
Breast cancer cells
  GI50: 100 to 500 nM
Human TTK
  IC50: < 100 nM
TICs (Colon 12); Colon 12 TICs
  GI50: 100 to 500 nM
[2]; Homo sapiens, PA-1
  GI50: < 100 nM
TICs (Ovarian 2393A); Ovarian 2393A TICs
  GI50: 100 to 500 nM
Human PLK4
  IC50: < 50 nM

## CN1C2CCC1CC(Oc1ccc(-c3n[nH]c4ccc(C(=O)N[C@H](c5ccccc5Cl)C5CC5)cc34)cc1)C2 (stereo partly drawn) [Example A235, N-((S)-(2-chlorophenyl)(cyclopropyl)methyl)-3-(4-(((1R,3R,5S)-8-methyl-8-azabicyclo[3.2.1]octan-3-yl)oxy)phenyl)-1H-indazole-5-carboxamide]
[1]
  GI50: < 100 nM
Breast cancer cells
  GI50: < 100 nM
Human TTK
  IC50: < 100 nM
TICs (Colon 12); Colon 12 TICs
  GI50: < 100 nM
[2]; Homo sapiens, PA-1
  GI50: < 100 nM
TICs (Ovarian 2393A); Ovarian 2393A TICs
  GI50: < 100 nM
Human PLK4
  IC50: < 50 nM

## CN1C2CCC1CC(Oc1ccc(-c3n[nH]c4ccc(C(=O)N[C@@H](c5ccsc5)C5CCCC5)cc34)cc1)C2 (stereo partly drawn) [Example A247, N-((R)-cyclopentyl(thiophen-3-yl)methyl)-3-(4-(((1R,3R,5S)-8-methyl-8-azabicyclo[3.2.1]octan-3-yl)oxy)phenyl)-1H-indazole-5-carboxamide]
[1]
  GI50: 100 to 500 nM
Breast cancer cells
  GI50: 100 to 500 nM
Human TTK
  IC50: < 100 nM
TICs (Colon 12); Colon 12 TICs
  GI50: 100 to 500 nM
[2]; Homo sapiens, PA-1
  GI50: 100 to 500 nM
TICs (Ovarian 2393A); Ovarian 2393A TICs
  GI50: 100 to 500 nM
Human PLK4
  IC50: < 50 nM

## CC(C)[C@@H](NC(=O)c1ccc2[nH]nc(-c3ccc(OC4CCN(C)CC4)cc3)c2c1)c1ccccc1Cl [Example A274, (R)-N-(1-(2-chlorophenyl)-2-methylpropyl)-3-(4-((1-methylpiperidin-4-yl)oxy)phenyl)-1H-indazole-5-carboxamide]
[1]
  GI50: 100 to 500 nM
Breast cancer cells
  GI50: > 500 nM
Human TTK
  IC50: < 100 nM
TICs (Colon 12); Colon 12 TICs
  GI50: 100 to 500 nM
[2]; Homo sapiens, PA-1
  GI50: 100 to 500 nM
TICs (Ovarian 2393A); Ovarian 2393A TICs
  GI50: 100 to 500 nM
Human PLK4
  IC50: < 50 nM

## CC(C)[C@H](NC(=O)c1ccc2[nH]nc(-c3ccc(OC4CC5CCC(C4)N5C=O)cc3)c2c1)c1ccccc1Cl (stereo partly drawn) [Example A333]
[1]
  GI50: < 100 nM
Human TTK
  IC50: < 100 nM
TICs (Colon 12); Colon 12 TICs
  GI50: < 100 nM
[2]; Homo sapiens, PA-1
  GI50: < 100 nM
TICs (Ovarian 2393A); Ovarian 2393A TICs
  GI50: < 100 nM
Human PLK4
  IC50: < 50 nM

## CC(C)[C@H](NC(=O)c1ccc2[nH]nc(-c3ccc(OC4CCN(C=O)CC4)cc3)c2c1)c1ccccc1Cl [Example A334, (S)-N-(1-(2-chlorophenyl)-2-methylpropyl)-3-(4-((1-formylpiperidin-4-yl)oxy)phenyl)-1H-indazole-5-carboxamide]
[1]
  GI50: < 100 nM
Human TTK
  IC50: < 100 nM
TICs (Colon 12); Colon 12 TICs
  GI50: < 100 nM
[2]; Homo sapiens, PA-1
  GI50: < 100 nM
TICs (Ovarian 2393A); Ovarian 2393A TICs
  GI50: < 100 nM
Human PLK4
  IC50: < 50 nM
